Experiment in all cases: bio-layer interferometry, immobilised protein
Holding throughout (assay type): binding
For orientation: Biolayer interferometry detects binding as a change in optical thickness at a sensor tip.

The target in test [1] is T1, BmArgRS (Bombyx mori, UniProt A0A8R1WK71).
T1 construct: gene 101737924; apparently full length (catalytic core 216-481)
T1 sequence (A0A8R1WK71 1-683): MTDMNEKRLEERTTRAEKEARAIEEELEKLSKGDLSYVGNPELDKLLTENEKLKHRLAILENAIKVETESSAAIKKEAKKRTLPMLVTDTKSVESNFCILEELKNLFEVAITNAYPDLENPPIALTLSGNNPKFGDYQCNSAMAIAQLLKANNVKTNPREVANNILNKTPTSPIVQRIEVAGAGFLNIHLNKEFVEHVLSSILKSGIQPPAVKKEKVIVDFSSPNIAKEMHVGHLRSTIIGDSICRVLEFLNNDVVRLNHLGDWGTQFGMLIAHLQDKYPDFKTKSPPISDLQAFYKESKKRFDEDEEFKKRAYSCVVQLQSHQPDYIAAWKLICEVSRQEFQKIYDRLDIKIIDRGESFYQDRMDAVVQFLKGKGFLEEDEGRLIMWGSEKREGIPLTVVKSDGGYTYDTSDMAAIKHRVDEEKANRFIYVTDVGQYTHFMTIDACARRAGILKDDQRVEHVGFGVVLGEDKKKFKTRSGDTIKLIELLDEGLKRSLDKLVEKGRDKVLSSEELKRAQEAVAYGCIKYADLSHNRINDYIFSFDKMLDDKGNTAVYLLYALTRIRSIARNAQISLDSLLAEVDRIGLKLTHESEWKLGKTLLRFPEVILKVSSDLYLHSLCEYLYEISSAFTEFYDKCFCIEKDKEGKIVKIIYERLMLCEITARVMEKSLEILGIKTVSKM
The source says:
bio-layer interferometry, immobilised protein on BmArgRS

Test [2] addresses T2, BmArgRS (Bombyx mori, UniProt A0A8R1WK71, K475A).
T2 construct: gene 101737924; apparently full length (catalytic core 216-481)
T2 sequence (A0A8R1WK71 1-683 K475A): T1 sequence (A0A8R1WK71 1-683) with K475A

The target in test [3] is T3, BmArgRS (Bombyx mori, UniProt A0A8R1WK71, V468A).
T3 construct: gene 101737924; apparently full length (catalytic core 216-481)
T3 sequence (A0A8R1WK71 1-683 V468A): T1 sequence (A0A8R1WK71 1-683) with V468A

Where a chain is given by its changes, count along the chain named. Where a SMILES comes first, the peptide text is derived from it. [ ]: non-standard residue; d: D form. dLac(3-vinyl) = C=CC[C@@H](O)C(=O)O; NMeV = CN[C@H](C(=O)O)C(C)C; NMeA = CN[C@@H](C)C(=O)O; βAla = NCCC(=O)O

A word on the Kd: it is the equilibrium constant for the complex coming apart.

Turning to `C=CC[C@H]1OC(=O)CCNC(=O)[C@H](C)N(C)C(=O)[C@H](C(C)C)N(C)C(=O)[C@H]([C@@H](C)CC)NC(=O)[C@@H]2CCCN2C1=O` [Destruxin A] (cyclo(I[NMeV][NMeA][βAla][dLac(3-vinyl)]P)), the dissociation constant Kd came out at 55.3 µM at BmArgRS [1], 5.71 µM at BmArgRS [2] and 53 µM at BmArgRS [3].

The values are drawn from PMC7076788, “Interactions of Destruxin A with Silkworms’ Arginine tRNA Synthetase and Lamin-C Proteins” (Toxins, 2020).
